What was measured:
[1] = Total human plasma exposure Cmax.tot; type: in vivo; conditions: across literature references
[2] = system: HepaRG cells; conditions: HepaRG cells, BMCs in relation to 10 × human Cmax.tot; ref National Toxicology Program; cited from earlier work

Row | difference in Cmax.tot values utilised across studies [1] | Compound | DILI identification by high-throughput transcriptomics [2]
1 | 16.6 fold | CC(C)C(=O)Nc1ccc([N+](=O)[O-])c(C(F)(F)F)c1 [flutamide, reference compound] | –
2 | – | Cc1c(C)c2c(c(C)c1O)CCC(C)(COc1ccc(CC3SC(=O)NC3=O)cc1)O2 (centres unmarked) [troglitazone, reference compound] | identified
